From patent US20100003217A1, “Compounds and Pharmaceutical Compositions for the Treatment of Viral Infections” (priority 2008, published 2010) come the findings set out here.

Values joined by “and” are separate entries in the source; they are usually repeats but may differ in a detail not shown here. Equal entries are not always repeated.

This series relates to rat primary hepatocytes. The experiment in a line: Metabolic disposition of [^14C]-Compound 1 and [^14C]-2′-C-methyl guanosine in rat primary hepatocytes (incubation medium, cellular extracts, nucleotide levels). The format is in vitro ADME, Sprague Dawley rat. The method, then:
Primary hepatocytes: Freshly isolated cells from animal and human liver were obtained in suspension on ice. Cells were pelleted by centrifugation at 70-75×g (rat) or 95-90×g (monkey and human) and resuspended at 0.8 million cells per mL of platting medium (William's E supplemented with 5% FBS, 0.5% penicillin-streptomycin, 1% L-glutamine, 4 μg/mL insulin and 1 μM dexamethasone). Multi-well collagen I-coated plates (rat tail collagen type I; 12- or 6-well) were then seeded by addition of 1 mL (12-well; 0.8 million cells/well) or 2 mL (6-well; 1.6 million cells/well) of cell suspension. The plates were gently shaken to evenly distribute the cells and placed in an incubator at 37° C. for approximately 4 to 6 hours to allow cells to attach. Once cells were attached, the platting medium was removed and replaced with hepatocyte culture medium (William's E supplemented with penicillin-streptomycin, 1% L-glutamine, 1% insulin-transferrin-selenium and 0.1 μM dexamethasone). Cells were left overnight in an incubator at 37° C. to acclimatize to culture and the medium.
Hepatocyte incubations with radiolabeled Compound 1 and 2′-C-methyl guanosine, both labeled in the C-8 position of the guanine moiety, were conducted at a final volume of 2.0 mL hepatocyte culture medium/well ([…]). Culture medium from overnight incubation of cells was removed and replaced with fresh medium, pre-warmed to 37° C., containing 1 or 10 μM [^14C]-Compound 1 ([…]) or [^14C]-2′-C-methyl guanosine (127 DPM/μmol) from a stock solution in DMSO (final DMSO concentration was 0.1%) or 50% ethanol (final ethanol concentration was 0.2%). After 1, 4, 8 and 24 hours, 0.5-1.0 mL of incubation medium was removed and stored at −20° C. until analysis (described below). The remaining medium was discarded and cell monolayers were carefully washed two times with ice-cold PBS. Following the last wash, all PBS was carefully removed and 1.0 mL of extraction solution (ice-cold 70% methanol) added. Cells were scrapped off and suspended in the extraction solution, transferred to 2 mL polypropylene microfuge tubes and intracellular contents extracted overnight at −20° C.
Preliminary identification of putative metabolites was conducted by comparing the retention time of observed metabolites in incubation medium and cellular extracts with retention times obtained with chemically synthesized standards using the chromatography conditions described below. Further identification of 2′-C-methyl guanosine nucleotides (mono-, di- and triphosphate) was carried out by incubating cellular extract samples with alkaline phosphatase (10 units for 60 min at 37° C.) and comparing the HPLC retention times of the resulting nucleosides with that of authentic 2′-C-methyl guanosine.
Cellular extracts were prepared by centrifugation at 16,000 RCF using an Eppendorf microcentrifuge (Eppendorf, Model 5415D) for 10 min to remove cellular debris. An aliquot of 5-10 μL of the supernatant was added to 5 mL of EcoLite™ (MP, Irvine, Calif.) liquid scintillation cocktail and radioactivity measured by liquid scintillation counting (LSC) using a Beckman Coulter LS6500 multipurpose liquid scintillation counter (Beckman Instruments, Fullerton, Calif.). The remaining sample was then dried using a Labconco refrigerated centrivap concentrator (Labconco, Kansas City, Mo.). Dry extracts were reconstituted in 120 μL of HPLC-grade water and centrifuged at 16,000 RCF using an Eppendorf microcentrifuge for 10 min. Prior to HPLC analysis (described below), radioactivity of the concentrated extracts was measured by LSC using 5 μL aliquots. Extraction recovery was then determined by comparing total radioactivity in extracts before and after drying. The remaining extract was then analyzed by HPLC with online radioactivity detection using a Flow Scintillation Analyzer Radiomatic™ 515TR. Radioactivity in the separated components was quantified by integrating the peaks using Flo-One™ Software (Perkin Elmer Life Sciences). […]

The mark [1] stands for this setting: rat hepatocytes (Rs448, Rs458), 10 μM [^14C]-Compound 1, 8 h.
Where [2] appears, read: rat hepatocytes (Rs448, Rs458), 10 μM [^14C]-Compound 1, 24 h.
The mark [3] stands for this setting: rat hepatocytes (Rs458), 1 μM [^14C]-Compound 1, 0 h.
The mark [4] stands for this setting: rat hepatocytes (Rs458), 1 μM [^14C]-Compound 1, 1 h.
Setting [5] is: rat hepatocytes (Rs458), 1 μM [^14C]-Compound 1, 8 h.
The mark [6] stands for this setting: rat hepatocytes (Rs458), 1 μM [^14C]-Compound 1, 24 h.
The mark [7] stands for this setting: rat hepatocytes (lots Rs448, Rs458), 10 μM [^14C]-Compound 1, 0 h.
Setting [8] is: rat hepatocytes (lots Rs448, Rs458), 10 μM [^14C]-Compound 1, 1 h.
The mark [9] stands for this setting: rat hepatocytes (lots Rs448, Rs458), 10 μM [^14C]-Compound 1, 4 h.
[10] abbreviates: rat hepatocytes (lots Rs448, Rs458), 10 μM [^14C]-Compound 1, 8 h.
The mark [11] stands for this setting: rat hepatocytes (lots Rs448, Rs458), 10 μM [^14C]-Compound 1, 24 h.

For the compound `CC(C)(CO)C(=O)SCCOP(N)(=O)OC[C@H]1O[C@@H](n2cnc3c(=O)[nH]c(N)nc32)[C@](C)(O)[C@@H]1O` (mixture of isomers) [Compound 3, {9-[(2R)2-C-methyl-β-D-ribo-furanosyl]-guanin}-5′-yl-O-(hydroxy-tert-butyl-S-acyl-2-thioethyl) phosphoramidate], the “metabolites observed in cellular extracts (% of total radioactivity)” value is listed as “BLD” under setting [1] and “BLD” under setting [2]. The “metabolites observed in medium (% of total radioactivity)” value by setting is: under setting [3], “BLD”; under setting [4], “BLD”; under setting [5], “BLD”; under setting [6], 1.7% and 1.71%; under setting [7], “BLD”; under setting [8], “BLD”. In addition, the “metabolites observed in medium (% of total radioactivity)” value under setting [9] worked out at 0.9%; the “metabolites observed in medium (% of total radioactivity)” value under setting [10] is 1.4% and 2.1%; the “metabolites observed in medium (% of total radioactivity)” value under setting [11] is 1.4% and 1.7%.

Consider `C[C@@]1(O)[C@H](O)[C@@H](COP(=O)(O)NCc2ccccc2)O[C@H]1n1cnc2c(=O)[nH]c(N)nc21` [Compound 2, [(2R)-2-methyl-β-D-ribofuranosyl]guanine-N-benzylaminyl-5′-monophosphate], for which the “metabolites observed in cellular extracts (% of total radioactivity)” value is 1.92% and 3.48% (rat hepatocytes (Rs448, Rs458), 10 μM [^14C]-Compound 1, 1 h, listed as Compd 2); “BLD” under setting [1]; “BLD” under setting [2]; 5.83% under setting [4]; “BLD” under setting [5]; “BLD” under setting [6]. In addition, the “metabolites observed in medium (% of total radioactivity)” value under setting [3] came to 1.05%; the “metabolites observed in medium (% of total radioactivity)” value under setting [4] was determined as 3.02%; the “metabolites observed in medium (% of total radioactivity)” value under setting [5] is given as 9.52%; the “metabolites observed in medium (% of total radioactivity)” value under setting [6] was 7% and 7.43%; the “metabolites observed in medium (% of total radioactivity)” value under setting [7] was 2.2% and 1.5%; the “metabolites observed in medium (% of total radioactivity)” value under setting [8] was 1.9% and 1.5%. Besides, the “metabolites observed in medium (% of total radioactivity)” value reads like this: under setting [9], 5.3% and 5.1%; under setting [10], 5.7% and 6.8%; under setting [11], 3.7% and 4.6%.
